Experimental data published in patent publication US8889143B2, “Ii-key/HER-2/neu hybrid cancer vaccine” (Antigen Express, Inc., priority 2006, dated 2014).

Assays:
[1] = system: PBMC; test: 3H-thymidine proliferation assay on patient PBMC; type: cell-based, human; details: PBMC of patients vaccinated with AE37, label = stimulating peptide
Description: Blood was drawn from patients prior to receiving each inoculation, at one month (post-vaccination), and at six months (long-term) after completing the series. Forty ml of peripheral blood was drawn into Vacutainer® CPT™ tubes (Becton Dickinson, Franklin Lakes, N.J.) and centrifuged for the isolation of PBMC populations. PBMC were washed in HBSS and re-suspended in culture medium (CM) consisting of RPMI-1640 containing 10% FCS (Gemini Bio-Products, Woodland, Calif.) supplemented with 1× penicillin/L-glutamine/streptomycin (Life Technologies, Gaithersburg, Md.) and used for setting up the immunomonitoring protocol/assays which consisted of ELISPOT (IFN-γ secretion) and proliferation (3H-thymidine incorporation) assays. All cultures were maintained in a humidified incubator at 37° C. in 5% CO2.
The PBMC population prepared from the patient's peripheral blood sample was also used for the monitoring of vaccine-specific proliferative activity of the T lymphocytes using a standard radioactive ^3H-thymidine incorporation assay. […] The filtermat was dried and placed in a sample bag with scintillation fluid (BetaScint, Perkin-Elmer) and counted using a scintillation counter (MicroBeta Trilux Scintillation Counter, Perkin-Elmer). The proliferative activity associated with the cultures was measured by the amount of thymidine incorporation which was determined as counts per minute (cpm). […]

[2] = Phase II trial: DTH reactions; type: in vivo, human; details: label = challenge peptide
Description: (§1) Immunologic response was monitored by measured delayed type hypersensitivity reactions (DTH) and ^3H-thymidine proliferative assays for both hybrid AE37 (LRMK+HER2/neu:776-790) and AE36 (unmodified HER2/neu:776-790) peptides.

[3] = Phase II trial: 3H-thymidine proliferative assays; type: cell-based, human; details: label = stimulating peptide
Description: as §1

[4] = system: PBMC; test: IFN-γ ELISPOT assays (ex vivo and 7-day) on patient PBMC; type: cell-based, human; details: PBMC of patients vaccinated with AE37; label = stimulating peptide
Description: Blood was drawn from patients prior to receiving each inoculation, at one month (post-vaccination), and at six months (long-term) after completing the series. Forty ml of peripheral blood was drawn into Vacutainer® CPT™ tubes (Becton Dickinson, Franklin Lakes, N.J.) and centrifuged for the isolation of PBMC populations. […]
The human IFN-γ ELISPOT Kit (BD-Pharmingen) was used for the ELISPOT assays. […] The plate was allowed to dry and the number of spots present in each well was counted and analyzed using a CTL-ImmunoSpot Analyzer (C.T.L. Cellular Technology Ltd, OH) (FIGS. 7-10). […]
The PBMC population prepared from the patient's peripheral blood (as described in the previous section) was resuspended at 2×10^6 cells/ml in CM and added as 1 ml aliquots to the 8 wells. […] At the end of the incubation period the plate was removed and the cells/cultures were harvested into separate tubes, spun down, resuspended in CM, and counted. […] The plate was allowed to dry and the number of spots present in each well was counted and analyzed using a CTL-ImmunoSpot Analyzer (C.T.L. Cellular Technology Ltd, OH) (FIGS. 11-14). […]

[5] = in vivo
Description: The dose escalation safety trial design is for five groups of three patients to receive escalating doses of AE37 with or without GM-CSF in six monthly inoculations. An additional six patients will be vaccinated at the optimal biologic dosing (OBD) in order to complete the 21 patient phase I trial. Enrolled patients were HLA typed, and HLA-A2^− patients and those HLA-A2^+ patients not interested in an alternative vaccine trial were vaccinated.
The National Institutes of Health Common Toxicity Criteria (CTC) (Version 2, Mar. 23, 1998) definitions of adverse events were applied. Both local toxicity at the injection sites as well as systemic toxicity were evaluated in all patients for all inoculations. By design, progression to the second stage occurred only if no significant toxicity occurred in the first stage.
Toxicities were graded per the National Institutes of Health Common Toxicity Criteria and reported on a scale zero to five (Table 3). Local toxicity dictated dose reductions as described above.

[6] = Phase Ib trial: delayed type hypersensitivity (DTH) reaction; type: in vivo, human; details: 100 μg AE37 intradermal without GM-CSF
Protocol: A direct in vivo measure of the vaccine's effectiveness is the DTH reaction. Patients were injected intradermally with 100 μg of AE37 (without GM-CSF) prior to the initiation of the vaccination series and one month after the completion of the vaccination regimen in the opposite limb to which they received the vaccine series. Patients were also injected intradermally with a parallel control (sterile saline, same volume) at a site on the back or extremity (opposite side from the vaccination site). The DTH reaction was measured in two dimensions at 48-72 hours using the sensitive ballpoint pen method and compared with control. Pre- and post-vaccination DTH reactions were also compared.

[7] = in vivo; remark: listed apart in the source
Protocol: (§2) Toxicity is assessed after each inoculation using National Cancer Institute Common Terminology Criteria for Adverse Events v3.0 (CTCAE). […] Patients are clinically, radiographically, and pathologically monitored for recurrence of BCa.

[8] = Phase II trial: recurrence of breast cancer; type: in vivo, human; details: for Recurrences (patients/total) / Recurrences: median follow up of 13 months; for Recurrences: PG vs AG p=0.08
Protocol: as §2

[9] = Phase Ib trial: local reaction and dose reductions; type: in vivo, human
Protocol: The study was performed as a two-stage safety trial to define the maximum tolerated dose of vaccine as well as the optimal dosing of the vaccine and GM-CSF. In the first stage (FIGS. 1-4), patient dose groups were given escalating amounts of the AE37 peptide. Three patients were assigned to each dosing group and were given the assigned dose of AE37 with a fixed initial dose of GM-CSF of 250 μg. This dose of GM-CSF was chosen based on our previous E75 trials. However, GM-CSF was reduced 50% for subsequent inoculations when local skin reaction exceeded 100 mm. All patients received monthly inoculations for six months. Dosing groups were as follows (AE37 (μg):#inoculations): 100:6, 500:6, 1000:6. Because each patient in the 500:6 group required significant and repeated reductions of GM-CSF, the 1000:6 group was initially inoculated without GM-CSF; GM-CSF was added back if local reaction from the two injection sites were non-confluent.
The hybrid peptide AE37 was mixed with GM-CSF (varying doses) and injected intradermally in the same extremity on a monthly basis. Each dosing group consisted of 3 patients. […] Stage I was designed to identify the maximum tolerated dose of vaccine. Stage II was designed to find the optimal biologic dose. Local toxicity dictated dose adjustments in each stage.
A local reaction ≧100 mm in at least one direction necessitates a reduction of GM-CSF dose for the subsequent vaccination (or reduction in vaccine dose if patient received no GM-CSF). […] FIGS. 1-4 show the dose of GM-CSF and the local reaction in each patient throughout the vaccine series.

[10] = Phase II trial AE37+GM-CSF versus GM-CSF alone: toxicity (CTCAE v3.0); details: six monthly inoculations, AG = GM-CSF alone
Protocol: as §2

[11] = Her-2/neu+ breast cancer patients; cited from earlier work
[12] = system: hen egg white lysozyme (HEL)-specific T cell hybridoma; details: cited from earlier work
[13] = AG group (GM-CSF alone), p>0.05 vs baseline
[14] = PG group (AE37 + GM-CSF), p<0.0001 vs baseline
[15] = PG (AE37 + GM-CSF), at 3, 6, and 12 months after the start of the vaccine series, p<0.015

Ac-GVGSPYVSRLLGICL-NH2 [AE36, native HER-2/neu peptide aa776-790, reference compound]
Peptide-specific proliferation of T cells after vaccination [1]: increased capacity to divide and expand a specific clone
Peptide-specific proliferation of T cells after vaccination ([1]; listed as native Her-2/neu peptide): increased CD4+ T cell response
Median DTH reaction at baseline ([2]; AG group (GM-CSF alone)): 0.0±0.5 cm
Median DTH reaction at 1 month after completion of the primary series [2, 13]: 0 mm
Median DTH reaction at baseline ([2]; PG group (AE37 + GM-CSF)): 0.0±0.8 cm
Median DTH reaction at 1 month after completion of the primary series [2, 14]: 15.3 ± 2.1 mm
Median proliferation response versus baseline ([3]; AG (GM-CSF alone)): did not significantly change
Median proliferation response versus baseline [3, 15]: significantly increased from baseline
CD4+ T cell response (IFN-γ ELISPOT) to stimulating peptide after vaccination [4]: increased CD4+ T cell response

Ac-LRMKGVGSPYVSRLLGICL-NH2 [AE37]
Grade 3 or greater local toxicities [5]: no grade 3 or greater local toxicities
Local toxicity grade, all patients [5]: grade 1 or 2 local toxicity
Maximum Toxicity, Local Toxicity Grade 1, number of patients (%) [5]: 3 (25)%
Maximum Toxicity, Local Toxicity Grade 2, number of patients (%) [5]: 9 (75%)
Maximum Toxicity, Local Toxicity Grade 3, number of patients (%) [5]: 0 (0%)
Maximum Toxicity, Systemic Toxicity Grade 1, number of patients (%) [5]: 10 (83%)
Maximum Toxicity, Systemic Toxicity Grade 2, number of patients (%) [5]: 0 (0%)
Maximum Toxicity, Systemic Toxicity Grade 3, number of patients (%) [5]: 0 (0%)
Overall safety and tolerability [5]: safe and well-tolerated with minimal systemic toxicity observed
Systemic toxicities reported [5]: Only grade 1 systemic toxicities
DTH diameter of local reaction pre vaccine, range ([6]; before vaccination series): 0-17 mm
DTH diameter of local reaction post-vaccine, range ([6]; one month after completion of series): 12-106 mm
DTH mean diameter of local reaction post-vaccine ([6]; one month after completion of series, p<0.0001 vs pre): 62 mm
DTH mean diameter of local reaction pre vaccine ([6]; read at 48-72 hours, before vaccination series): 4.9 mm
Overall safety [7]: safe
Recurrences (patients/total) [8]: 0/49
Recurrences [8]: 0.0%
Protection against BCa recurrences ([8]; phase II): protects against BCa recurrences
Median DTH reaction at baseline ([2]; AG group (GM-CSF alone)): 0.0±0.7 cm
Median DTH reaction at 1 month after completion of the primary series [2, 13]: 0 mm
Median DTH reaction at baseline ([2]; PG group (AE37 + GM-CSF)): 0.0±0.7 cm
Median DTH reaction at 1 month after completion of the primary series [2, 14]: 24.5 ± 2.6 mm
Median proliferation response versus baseline ([3]; AG (GM-CSF alone)): did not significantly change
Median proliferation response versus baseline [3, 15]: significantly increased from baseline
Dose reductions required because of local reaction ≧100 mm ([9]; first group 100:6 (100 μg AE37 + 250 μg GM-CSF)): required no reductions in dose
Dose reductions required because of local reaction ≧100 mm ([9]; second group 500:6 (500 μg AE37 + 250 μg GM-CSF initially)): required a GM-CSF dose reduction by the third vaccine
Dose reductions required because of local reaction ≧100 mm ([9]; third group 1000:6 (1000 μg AE37 initiated without GM-CSF)): two of the three patients in this group required reduction of vaccine dose on multiple occasions

GM-CSF
Recurrences (patients/total) [8]: 5/71
Recurrences [8]: 7.0%
Local toxicities ([10]; PG = 500 mcg AE37 + 62.5 or 125 mcg GM-CSF): no grade 4-5 local toxicities
Systemic toxicities ([10]; PG = AE37 + GM-CSF): no grade 3-5 systemic toxicities

GP2: immunogenic peptide of Her-2/neu used in clinical trials as vaccine (IISAVVGIL; UniProt P04626 654-662, looked up, fragment)
Safety in patients [11]: safe in patients
Stimulation of antigen specific immunity [11]: effective in stimulating antigen specific immunity

LRMK [four-amino-acid Ii-Key moiety, Ii 77-80]
Activity retained relative to LRMKLPK [12]: at least 50%

LRMKLPK
Potency relative to the original 16-amino acid peptide [12]: greater potency than the original 16-amino acid peptide
